{"source": "paper PMC2803217", "about": "(Journal of Experimental Botany, 2009)", "molecules": {"B1": {"name": "AtPMT1 (Arabidopsis thaliana) (protein)", "chain": "MNSSGVEQGVVIAESEPPRGNRSRYAFACAILASMTSIILGYDIGVMSGASIFIKDDLKLSDVQLEILMGILNIYSLVGSGAAGRTSDWLGRRYTIVLAGAFFFCGALLMGFATNYPFIMVGRFVAGIGVGYAMMIAPVYTAEVAPASSRGFLTSFPEIFINIGILLGYVSNYFFSKLPEHLGWRFMLGVGAVPSVFLAIGVLAMPESPRWLVLQGRLGDAFKVLDKTSNTKEEAISRLDDIKRAVGIPDDMTDDVIVVPNKKSAGKGVWKDLLVRPTPSVRHILIACLGIHFAQQASGIDAVVLYSPTIFSKAGLKSKNDQLLATVAVGVVKTLFIVVGTCVVDRFGRRALLLTSMGGMFLSLTALGTSLTVINRNPGQTLKWAIGLAVTTVMTFVATFSIGAGPVTWVYCSEIFPVRLRAQGASLGVMLNRLMSGIIGMTFLSLSKGLTIGGAFLLFAGVAAAAWVFFFTFLPETRGIPLEEMETLFGSYTANKKNNSMSKDNEVVDGQ"}, "B2": {"name": "AtPMT2 (Arabidopsis thaliana) (protein)", "chain": "MSSSGEERGVVVAESEPPRGNRSRFAFACAILASMTSIILGYDIGVMSGAAIFIKDDLKLSDVQLEILMGILNIYSLIGSGAAGRTSDWIGRRYTIVLAGFFFFCGALLMGFATNYPFIMVGRFVAGIGVGYAMMIAPVYTTEVAPASSRGFLSSFPEIFINIGILLGYVSNYFFAKLPEHIGWRFMLGIGAVPSVFLAIGVLAMPESPRWLVMQGRLGDAFKVLDKTSNTKEEAISRLNDIKRAVGIPDDMTDDVIVVPNKKSAGKGVWKDLLVRPTPSVRHILIACLGIHFSQQASGIDAVVLYSPTIFSRAGLKSKNDQLLATVAVGVVKTLFIVVGTCLVDRFGRRALLLTSMGGMFFSLTALGTSLTVIDRNPGQTLKWAIGLAVTTVMTFVATFSLGAGPVTWVYASEIFPVRLRAQGASLGVMLNRLMSGIIGMTFLSLSKGLTIGGAFLLFAGVAVAAWVFFFTFLPETRGVPLEEIESLFGSYSANKKNNVMSKGKQVVDEQ"}}, "key": {"AtPMT2": {"target": "T1, AtPMT2 (Arabidopsis thaliana, UniProt Q9XIH6)", "T1 sequence (Q9XIH6 1-511)": "B2 chain", "experiment": "competition of […]-sorbitol uptake in transgenic yeast", "format": "cell-based", "conditions": "pH 5.0"}, "AtPMT1": {"target": "T2, AtPMT1 (Arabidopsis thaliana, UniProt Q9XIH7)", "T2 sequence (Q9XIH7 1-511)": "B1 chain", "experiment": "competition of […]-sorbitol uptake in transgenic yeast", "format": "cell-based", "conditions": "pH 5.0"}, "[1]": {"substrate": "OC[C@@H](O)[C@@H](O)[C@H](O)[C@@H](O)CO", "experiment": "cells, lysate or membranes", "conditions": "50 mM sodium phosphate pH 5.0, H+ symport"}, "[2]": {"substrate": "OC[C@@H](O)[C@H](O)[C@@H](O)CO", "experiment": "cells, lysate or membranes", "conditions": "50 mM sodium phosphate pH 5.0, H+ symport"}}}
{"molecule": "OC[C@@H](O)[C@@H](O)[C@H](O)[C@@H](O)CO", "note": "[sorbitol]", "values": [{"measurement": "uptake of 0.1 mM 14C-sorbitol with 10 mM competitor", "setting": "AtPMT2; 10 mM unlabelled sorbitol", "value": "sorbitol was transported by both cell lines"}]}
{"molecule": "OC[C@@H](O)[C@@H](O)CO", "note": "[erythritol]", "values": [{"measurement": "uptake of 0.1 mM 14C-sorbitol with 10 mM competitor", "setting": "AtPMT1", "value": "In both strains, uptake of sorbitol was strongly reduced in the presence of xylitol"}, {"measurement": "uptake of 0.1 mM 14C-sorbitol with 10 mM competitor", "setting": "AtPMT2; 10 mM competitor", "value": "In both strains, uptake of sorbitol was strongly reduced in the presence of xylitol"}]}
{"molecule": "B1", "values": [{"measurement": "Km", "setting": "[1]", "value": "0.77 ± 0.12", "unit": "mM"}, {"measurement": "Km", "setting": "[2]", "value": "0.14 ± 0.02", "unit": "mM"}]}
{"molecule": "B2", "values": [{"measurement": "Km", "setting": "[2]", "value": "0.18 ± 0.01", "unit": "mM"}]}
